Test results as given in patent publication US20170260226A1, “3-NITROGEN OR SULPHUR SUBSTITUTED OESTRA-1,3,5(10),16-TETRAENE AKR1C3 INHIBITORS” (BAYER PHARMA AKTIENGESELLSCHAFT, priority 2014, published 2017).

Experiments:
AKR1C3 [1] = biological target: T1, AKR1C3 (Homo sapiens, UniProt P42330); assay: AKR1C3 enzyme inhibition assay (coumberone to coumberol fluorescence); assay type: biochemical; design: GST (cleaved yes); made in house; host or cells: E. coli; conditions: mean values; 10 μM NADPH, 0.3 μM coumberone, 3 h at room temperature
T1 sequence (P42330 1-323): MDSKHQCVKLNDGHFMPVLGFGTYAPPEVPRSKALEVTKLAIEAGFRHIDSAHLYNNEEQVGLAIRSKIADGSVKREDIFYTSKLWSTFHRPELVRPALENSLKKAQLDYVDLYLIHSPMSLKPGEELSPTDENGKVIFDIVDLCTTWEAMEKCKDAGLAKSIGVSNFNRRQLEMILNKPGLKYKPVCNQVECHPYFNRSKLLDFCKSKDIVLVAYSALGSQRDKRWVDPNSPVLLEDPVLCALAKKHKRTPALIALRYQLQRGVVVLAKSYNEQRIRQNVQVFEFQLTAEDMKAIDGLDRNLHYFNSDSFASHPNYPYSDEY
Procedure: The AKR1C3-inhibitory action of the substances of this invention was measured in the AKR1C3 assay described in the paragraphs which follow.
Essentially, the enzyme activity is measured by quantifying the coumberol formed from coumberone (Halim, M., Yee, D., J., and Sames, D., J. A., M. (2008). Chem Soc 130, 14123-14128 and Yee, D., J., Balsanek, V., Bauman, D., R., Penning, T., M., and Sames, D. (2006). Proc Natl Acad Sci USA, 103, 13304-13309). In this assay, the increase in the highly fluorescent coumberol can be determined by NADPH (nicotinamide adenine dinucleotide phosphate)-dependent reduction of the nonfluorescent coumberone by AKR1C3.
The enzyme used was recombinant human AKR1C3 (aldo-keto reductase family 1 member C3) (GenBank Accession No. NM_003739). This was expressed as the GST (glutathione S-transferase) fusion protein in E. coli and purified by means of glutathione-Sepharose affinity chromatography. The GST was removed by thrombin digestion with subsequent size exclusion chromatography (Dufort, I., Rheault, P., Huang, X., F., Soucy, P., and Luu-The, V. (1999). Endocrinology,140, 568-574).
For the assay, 40-50 nl of a 100-fold concentrated solution of the test substance in DMSO were pipetted into a black low-volume 384-well microtitre plate (Greiner Bio-One, Frickenhausen, Germany), 2-2.5 μl of a solution of AKR1C3 in assay buffer [50 mM potassium phosphate buffer pH 7, 1 mM DTT, 0.0022% (w/v) Pluronic F-127, 0.01% BSA (w/v) and protease inhibitor cocktail (complete, EDTA-free Protease Inhibitor Cocktail from Roche)] were added and the mixture was incubated for 20 min, in order to enable preliminary binding of the substances to the enzyme prior to the enzyme reaction. Then the enzyme reaction was started by adding 2-2.5 μl of a solution of NADPH and coumberone in assay buffer (final assay concentration was 10 μM NADPH and 0.3 μM coumberone) and the resulting mixture was incubated at room temperature for 3 h. Typical concentrations were depending on the linear range of the enzyme reaction during the reaction time about 1 nM. The reaction was stopped by adding 2 μl of a stop solution consisting of the AKR1C3 inhibitor EM-1404 to a final concentration of 1 μM. Subsequently, the fluorescence of coumberol was measured at 520 nm (excitation at 380 nm) with a suitable measuring instrument (Pherastar, BMG). […] The data were normalized (enzyme+coumberon substrate in assay buffer=0% inhibition; coumberone substrate only in assay buffer=100% inhibition). Substances were usually tested at 11 different concentrations on the same microtiter plate in a range between 96.8 pM to 20 μM (20 μM, 5.9 μM, 1.7 μM, 0.5 μM, 0.15 μM, 44 nM, 12.9 nM, 3.8 nM, 1.1 nM, 0.3 nM and 96.8 pM). The dilutions were carried out on a 100 fold concentrated solution by serial dilution in duplicates. From the obtained data IC50 values were calculated by a 4-parameter fit.

AKR1C3 [2] = biological target: T1, AKR1C3; assay: AKR1C3 inhibition in a cell-based system (HEK293 cells transfected with AKR1C3 expression plasmid, coumberon substrate); design: expressed in transfected cells; host or cells: HEK293 cells (ATCC); conditions: mean values; HEK293 cells transfected with AKR1C3, coumberon 6×10^−6M, 3 h; read-out: Cellular AKR1C3 inhibition IC50
Procedure: The inhibition of AKR1C3 by the substances described in this invention was measured in a cell-based assay using coumberon as the substrate for AKR1C3 (Halim, M., Yee, D., J., and Sames, D., J. (2008). Am Chem Soc, 130, 14123-14128 and Yee, D., J., Balsanek, V., Bauman, D., R., Penning, T., M., and Sames, D. (2006), Proc Natl Acad Sci USA 103, 13304-13309) (cf. Example 48).
The cell system used was HEK293 cells (ATCC, USA) (DMEM/F12, 10% FCS, 2 mM L-Glutamine, PSG). The cells were transfected with an AKR1C3 expression plasmid (pCMV6-AC-AKR1C3, GenBank Accession No. NM 003739.4), harvested after 24 hours and subsequently frozen. For assays, the frozen cells were thawed in assay medium (DMEM/F12 w/o phenolred, 0.005% Tween, 10% FCS, 2 mM L-Glutamine, PSG). Cells were seeded at 2500 cells/well into 384-well low volume or 1536-well plates (Greiner Bio-One, Frickenhausen, Germany) that contained 40-50 nl of a 100 fold concentrated compound solution in DMSO. After incubation at room temperature for 15 minutes, coumberon in PBS was added to a final concentration of 6×10^−6M. Following a 3 h incubation at room temperature, the reaction was stopped by lysing the cells with 0.4% Triton X-100. Coumberol fluorescence intensity was measured at 520 nm (excitation 380 nm) with a suitable measuring instrument (Pherastar, BMG). […] The data were normalized (transfected cells+coumberon=0% inhibition; no cells+coumberone=100% inhibition). Substances were usually tested at 11 different concentrations on the same microtiter plate in a range between 96.8 pM to 20 μM (20 μM, 5.9 μM, 1.7 μM, 0.5 μM, 0.15 μM, 44 nM, 12.9 nM, 3.8 nM, 1.1 nM, 0.3 nM and 96.8 pM). The dilutions were carried out on a 100 fold concentrated solution by serial dilution in duplicates. From the obtained data IC50 values were calculated by a 4-parameter fit.

IC50 (AKR1C3 [1]) [nM]	IC50 (AKR1C3 [2]) [nM]	Compound
8.6	150	C[C@]12CC[C@@H]3c4ccc(NC(=O)CCC(N)=O)cc4CC[C@H]3[C@@H]1CC=C2c1cncc(F)c1 [Example 26, N-[17-(5-fluoropyridin-3-yl)estra-1(10),2,4,16-tetraen-3-yl]butanediamide]
2.5	260	CN(C(=O)CCc1nn[nH]n1)c1ccc2c(c1)CC[C@@H]1[C@@H]2CC[C@]2(C)C(c3cncc(F)c3)=CC[C@@H]12 [Example 33, N-[17-(5-fluoropyridin-3-yl)estra-1(10),2,4,16-tetraen-3-yl]-N-methyl-3-(2H-tetrazol-5-yl)propanamide]
1.8	980	Cc1cc(C2=CC[C@H]3[C@@H]4CCc5cc(NC(=O)CCC(=O)O)ccc5[C@H]4CC[C@]23C)cnn1 [Example 45, 4-{[17-(6-methylpyridazin-4-yl)estra-1(10),2,4,16-tetraen-3-yl]amino}-4-oxobutanoic acid]
4.1	1540	CC(=O)NS(=O)(=O)CCC(=O)N(C)c1ccc2c(c1)CC[C@@H]1[C@@H]2CC[C@]2(C)C(c3cncc(F)c3)=CC[C@@H]12 [Example 31, 3-(acetylsulfamoyl)-N-[17-(5-fluoropyridin-3-yl)estra-1(10),2,4,16-tetraen-3-yl]-N-methylpropanamide]
3	5100	C[C@]12CC[C@@H]3c4ccc(NS(=O)(=O)CCC(=O)O)cc4CC[C@H]3[C@@H]1CC=C2c1cncc(F)c1 [Example 39, 3-{[17-(5-fluoropyridin-3-yl)estra-1(10),2,4,16-tetraen-3-yl]sulfamoyl}propanoic acid]
313	8340	C[C@]12CC[C@@H]3c4ccc(NC(=O)CCC(=O)O)cc4CC[C@H]3[C@@H]1CC=C2c1cncnc1 [Example 25, 4-oxo-4-{[17-(pyrimidin-5-yl)estra-1(10),2,4,16-tetraen-3-yl]amino}butanoic acid]
5.3	40	C[C@]12CC[C@@H]3c4ccc(S(=O)(=O)CCCCO)cc4CC[C@H]3[C@@H]1CC=C2c1cncc(F)c1 [Example 21, 4-{[17-(5-fluoropyridin-3-yl)estra-1(10),2,4,16-tetraen-3-yl]sulfonyl}butan-1-ol]
2.2	30	C[C@]12CC[C@@H]3c4ccc(S(C)(=N)=O)cc4CC[C@H]3[C@@H]1CC=C2c1cncc(F)c1 (stereo partly drawn) [Example 46, 17-(5-fluoropyridin-3-yl)-3-(S-methylsulfonimidoyl)estra-1(10),2,4,16-tetraene]
8.3	8090	C[C@]12CC[C@@H]3c4ccc(NC(=O)NCCC(=O)O)cc4CC[C@H]3[C@@H]1CC=C2c1cncc(F)c1 [Example 42, N-{[17-(5-fluoropyridin-3-yl)estra-1(10),2,4,16-tetraen-3-yl]carbamoyl}-beta-alanine]

The remaining lines, values behind:

Compound	IC50 (AKR1C3 [1]) [nM]	IC50 (AKR1C3 [2]) [nM]
Cc1ccncc1C1=CC[C@H]2[C@@H]3CCc4cc(S(=O)(=O)CCCC(=O)O)ccc4[C@H]3CC[C@]12C [Example 18, 4-{[17-(4-methylpyridin-3-yl)estra-1,3,5(10),16-tetraen-3-yl]sulfonyl}butanoic acid]	33.5	1790
Cc1cncc(C2=CC[C@H]3[C@@H]4CCc5cc(S(=O)(=O)CCCC(=O)O)ccc5[C@H]4CC[C@]23C)c1 [Example 17, 4-{[17-(5-methylpyridin-3-yl)estra-1,3,5(10),16-tetraen-3-yl]sulfonyl}butanoic acid]	1.6	170
CN(CCCO)S(=O)(=O)c1ccc2c(c1)CC[C@@H]1[C@@H]2CC[C@]2(C)C(c3cncc(F)c3)=CC[C@@H]12 [Example 03, 17-(5-fluoropyridin-3-yl)-N-(3-hydroxypropyl)-N-methylestra-1(10),2,4,16-tetraene-3-sulfonamide]	2.4	50
Cc1ccc(C2=CC[C@H]3[C@@H]4CCc5cc(S(=O)(=O)CCCC(=O)O)ccc5[C@H]4CC[C@]23C)cn1 [Example 15, 4-{[17-(6-methylpyridin-3-yl)estra-1,3,5(10),16-tetraen-3-yl]sulfonyl}butanoic acid]	73	3180
C[C@]12CC[C@@H]3c4ccc(S(=O)(=O)CCCC(=O)O)cc4CC[C@H]3[C@@H]1CC=C2c1cccnc1 [Example 12, 4-{[17-(pyridin-3-yl)estra-1(10),2,4,16-tetraen-3-yl]sulfonyl}butanoic acid]	12	700
C[C@]12CC[C@@H]3c4ccc(S(C)(=O)=O)cc4CC[C@H]3[C@@H]1CC=C2c1cncc(F)c1 [Example 08, 17-(5-fluoropyridin-3-yl)-3-(methylsulfonyl)estra-1(10),2,4,16-tetraene]	4.1	80
